Experimental data published in patent EP0900207B1, “PYRAZINONE THROMBIN INHIBITORS” (MERCK & CO., INC., priority 1996, dated 1997).

Tested on: Male Sprague-Dawley rats
Assay: Rat ferric chloride assay of thrombotic occlusion of the carotid artery
Format: in vivo
Details: continuous intravenous infusion 10 µg/kg/min
Protocol: Studies of 3-(2-Phenylethylamino)-6-methyl-1-(2-amino-6-methyl-5-methylenecarboxamidomethylpyridinyl)-2-pyridinone using the following rat ferric chloride assay substantially as described in Thrombosis Research, No. 60, page 269(1990) by Kurtz et al were used to determine in vivo activity of the thrombin inhibitors of the invention. Male Sprague-Dawley rats (body weights 200-350 grams) were anesthetized with dial-urethane solution (0.1 ml/100 gm body weight i.p.), and a lateral tail vein was cannulated with a 23 gauge needle connected to a 12 inch length of PE50 tubing. The tubing was attached to a 3-way valve by a tubing adapter. Saline (control) or test compound, as appropriate, was administered via the tail vein catheter. A tracheostomy was performed with a 0.75 inch length of PE205 tubing. The right carotid artery is exposed and a 1.3 mm diameter Doppler flow probe was placed on the vessel. Body temperature was maintained at 37°C using a heat lamp.
6 rats were randomized to continuous intravenous infusions of saline or test compound administered via the tail vein. Test compound was administered at a rate of 10 µg/kg/min. Treatment infusions were initiated 60 min before the placement of a 3 mm square piece of Whatman No. 1 filter paper saturated with 35% FeCl3 onto the exposed carotid artery distal to the flow probe. […]

For “3-(2-Phenylethylamino)-6-methyl-1-(2-amino-6-methyl-5-methylenecarboxamidomethylpyridinyl)-2-pyridinone [Example LXXXII]”, which “rats showing evidence of thrombotic occlusion” value (observed up to 90 minutes after application of FeCl3) is on record?
The value was “None”.

And the “efficacy against thrombotic occlusion” value (started 60 min before 35% FeCl3 on carotid artery)?
The value was “fully efficacious”.
